Reference: patent US20020035061A1, “COMPOSITIONS AND METHODS FOR TREATING INFECTIONS USING CATIONIC PEPTIDES ALONE OR IN COMBINATION WITH ANTIBIOTICS” (priority 1996, published 2002)
Where two headings read alike, the source gives them in different places.

Experiments:
Type in all cases: cell-based
S. aureus = test system: S. aureus
K. pneumoniae = test system: K. pneumoniae
S. maltophilia = test system: S. maltophilia
E. coli = test system: E. coli
P. aeruginosa = test system: P. aeruginosa
E. cloacae = test system: E. cloacae
S. epidermidis = test system: S. epidermidis
S. marcescens = test system: S. marcescens
A. calcoaceticus = test system: A. calcoaceticus
E. faecalis = test system: E. faecalis

Row | Sequence | MIC (S. aureus; S. aureus SA014) [µg/mL] | MIC (S. aureus; S. aureus SA093) [µg/mL] | MIC (K. pneumoniae; K. pneumoniae KP001) [µg/mL] | MIC (S. maltophilia; S. maltophilia SMA002) [µg/mL] | MIC (E. coli; E. coli ECO005) [µg/mL] | MIC (P. aeruginosa; P. aeruginosa PA004) [µg/mL] | MIC (E. cloacae; E. cloacae ECL007) [µg/mL] | MIC (S. epidermidis; S. epidermidis SE010) [µg/mL] | MIC (S. marcescens; S. marcescens SMS003) [µg/mL] | MIC (A. calcoaceticus; A. calcoaceticus AC002) [µg/mL] | MIC (E. faecalis; E. faecalis EFS001) [µg/mL] | MIC (E. faecalis; E. faecalis EFS008) [µg/mL] | MIC (E. cloacae; E. cloacae strain ECL007) [µg/mL] | MIC (S. epidermidis; S. epidermidis strain SE010) [µg/mL] | MIC (S. marcescens; S. marcescens strain SMS003) [µg/mL] | further results
1 | ILRWPWRRWPWRRK [MBI 11B19CN] | 4 | 2 | 64 | 32 | 8 | 128 | >128 | 4 | >128 | 4 | 2 | 32 |  |  |  | 
2 | KRRWVWWVWRLI [MBI 11F4CNR] |  |  |  |  |  |  |  |  |  |  |  |  | 32 | 8 | >128 | MIC (S. aureus; S. aureus strain SA093): 8 µg/mL; MIC (K. pneumoniae; K. pneumoniae strain KP001): 32 µg/mL; MIC (S. maltophilia; S. maltophilia strain SMA002): 32 µg/mL; MIC (E. coli; E. coli strain ECO005): 32 µg/mL; MIC (P. aeruginosa; P. aeruginosa strain PA004): 64 µg/mL; MIC (A. calcoaceticus; A. calcoaceticus strain AC002): 16 µg/mL; MIC (E. faecalis; E. faecalis strain EFS008): 32 µg/mL
3 | ILRNPNNPNRRK [MBI 11B7ACN] |  |  |  |  |  |  |  |  |  |  |  |  | >128 | 4 | >128 | MIC (S. aureus; S. aureus strain SA014): 2 µg/mL; MIC (S. aureus; S. aureus strain SA093): 1 µg/mL; MIC (K. pneumoniae; K. pneumoniae strain KP001, listed as MBI 11B7 ACN): 8 µg/mL; MIC (S. maltophilia; S. maltophilia strain SMA002, listed as MBI 11B7 ACN): 32 µg/mL; MIC (E. coli; E. coli strain ECO005, listed as MBI 11B7 ACN): 8 µg/mL; MIC (P. aeruginosa; P. aeruginosa strain PA004, listed as MBI 11B7 ACN): 128 µg/mL; MIC (A. calcoaceticus; A. calcoaceticus strain AC002, listed as MBI 11B7 ACN): 2 µg/mL; MIC (E. faecalis; E. faecalis strain EFS001, listed as MBI 11B7 ACN): 1 µg/mL; MIC (E. faecalis; E. faecalis strain EFS008): 8 µg/mL
4 | IARWPWWPWRRK [MBI 11H02CN] | 2 | 1 | 32 | 64 | 16 | >128 | >128 | 4 | >128 | 4 | 2 | 16 |  |  |  | 
5 | ILRWPAWPWRRK [MBI 11H06CN] | 8 | 1 | 64 | 64 | 16 | >128 | >128 | 8 | >128 | 8 | 2 | 16 |  |  |  | 
6 | ILAWPWWPWRRK [MBI 11H03CN] | 2 | 2 | 16 | 64 | 16 | >128 | >128 | 4 | >128 | 8 | 2 | 8 |  |  |  | 
7 | ILRRNPNNPNRRK [MBI 11B1CNW1] |  |  |  |  |  |  |  |  |  |  |  |  | 64 | 8 | >128 | MIC (S. aureus; S. aureus strain SA014): 16 µg/mL; MIC (K. pneumoniae; K. pneumoniae strain KP001): 32 µg/mL; MIC (S. maltophilia; S. maltophilia strain SMA002): 32 µg/mL; MIC (E. coli; E. coli strain ECO005): 32 µg/mL; MIC (P. aeruginosa; P. aeruginosa strain PA004): 64 µg/mL; MIC (A. calcoaceticus; A. calcoaceticus strain AC002): 16 µg/mL; MIC (E. faecalis; E. faecalis strain EFS004): 8 µg/mL
8 | ILRWPWWPWRRA [MBI 11H12CN] | 2 | 1 | 16 | 64 | 16 | >128 | >128 | 4 | >128 | 4 | 2 | 8 |  |  |  | 
9 | ILKKNPNNPRRK [MBI 11G6ACN] |  |  |  |  |  |  |  |  |  |  |  |  | >128 | 32 | >128 | MIC (S. aureus; S. aureus strain SA014): 64 µg/mL; MIC (K. pneumoniae; K. pneumoniae strain KP001): >128 µg/mL; MIC (S. maltophilia; S. maltophilia strain SMA002): >128 µg/mL; MIC (E. coli; E. coli strain ECO005): 64 µg/mL; MIC (P. aeruginosa; P. aeruginosa strain PA004): >128 µg/mL; MIC (A. calcoaceticus; A. calcoaceticus strain AC002): 4 µg/mL; MIC (E. faecalis; E. faecalis strain EFS008): >128 µg/mL
10 | PRIWKPKWRLPKR [MBI 11J01CN] | 16 | 2 | >128 | >128 | 64 | >128 | >128 | 32 | >128 | 4 | 128 | >128 |  |  |  | 
11 | LWPWWPWRRK [MBI 11G24CN] | 2 | 1 | 16 | 32 | 16 | 128 | >128 | 4 | >128 | 4 | 2 | 8 |  |  |  | 
